# Results taken from PubChem BioAssay AID2305 (GlaxoSmithKline (GSK), 2010).
# Values joined by “and” are separate entries in the source; they are usually repeats but may differ in a detail not shown here. Equal values may be shown once.
# Test system: P. falciparum 3D7 growth, pLDH absorbance
# Assay: P. falciparum 3D7 growth inhibition, dose response, strain 3D7 (AID 2305)
row,Compound,IC50
1,CN1CCN(Cc2ccc(-c3ccc4c(Nc5ccc(Cl)cc5F)ccnc4c3)o2)CC1,0.15 µM
2,COc1cc(Cc2cnc(N)nc2N)cc(OCc2cccc(C(=O)O)c2)c1OC,0.83 µM
3,OC(CNc1ccnc(Nc2cccc(Cl)c2)n1)c1ccc(C(F)(F)F)cc1 (stereo not drawn),0.77 µM
4,O=C(Nc1cccnc1)c1cc(C(=O)Nc2cccnc2)cc([N+](=O)[O-])c1,1.12 µM
5,C[C@H]1CN(Cc2cccc(-c3cc(CNC(=O)c4cccc(CN5CCN(C/C=C/c6ccccc6)CC5)c4)ccc3F)c2)CCN1,0.85 µM
6,CC[C@H](C)CNC(=O)c1cncc(-c2ccc(CNC3Cc4ccccc4C3)cc2)c1,0.83 µM
7,CCCC(CNCc1cccc(OC(F)(F)C(F)F)c1)CNc1cc(=O)c2ccccc2[nH]1 (stereo not drawn),0.59 µM
8,O=C(NC1CCC(CN2CCC(c3c[nH]c4ccccc34)CC2)CC1)c1csc(-c2cccc(Cl)c2Cl)n1 (stereo not drawn),1.73 µM
9,c1cc(CNCC2CCCO2)cc(-c2csc(-c3nc4ccccc4[nH]3)c2)c1 (stereo not drawn),1.04 µM
10,CC1(C)N=C(N)N=C(N)N1c1cc(Cl)c(Cl)c(Cl)c1,0.01 µM
11,OC(CNC1CCCCC1)c1ccc(Cl)c(Cl)c1 (stereo not drawn),0.7 µM
12,Cc1nc2c(=O)sc3ccccc3c2n1Cc1ccccc1,0.88 µM
13,Oc1cc2c(cc1CN1CCN(Cc3ccccc3)CC1)CCC2,0.72 µM
14,O=C(/C=C/c1ccc(Cl)c(Cl)c1)NCCCCCCN1CCN(C(=O)Nc2cc(F)cc(F)c2)CC1,1.07 µM
15,COc1cccc(-c2ccc(C(=O)NC3CCN(Cc4ccc(C(C)(C)C)cc4)CC3)s2)c1,1.6 µM
16,CCN(CC)S(=O)(=O)c1ccc(C(C)NC(=O)c2ccccc2COc2ccccc2)cc1 (stereo not drawn),0.33 µM
17,COc1ccc(CCN(C)CCCN2CCC(NC(=O)c3cccc4c(=O)c5ccccc5sc34)CC2)cc1OC,0.79 µM
18,CCCCCN1C(=O)C(c2ccccc2)(c2ccccc2)N=C1N,0.79 µM
19,Cc1cc(N)nc2cc(CNCCc3ccccc3Br)ccc12,0.13 µM
20,Cc1cccc2[nH]c(-c3ccc(-c4cccc(CNC5CCN(C)CC5)c4)s3)nc12,0.18 µM
21,c1cc(-c2ccc(CNCc3ccc(-c4csnn4)cc3)cc2)cc(-c2nc3ccccc3[nH]2)c1,0.16 µM
22,NS(=O)(=O)c1ccc(CNC(=O)c2cnc3c(O)cccc3c2Nc2cccc(NC(=O)c3ccc(Cl)c(Cl)c3)c2)cc1,1.72 µM
23,CNCC(O)c1cc(Cl)c(Cl)cc1C (stereo not drawn),0.92 µM
24,O=c1c(NCCCN(Cc2ccc(F)cc2)c2ccccn2)c(NCc2cccnc2)c1=O,0.06 µM
25,Cn1nc(-c2ccc(S(=O)(=O)N3CCC(CCN4CCC(c5c[nH]c6ccccc56)CC4)CC3)s2)cc1C(F)(F)F,0.81 µM

row,Compound,IC50
1,CCc1ccc(CN2CCC(NC(=O)c3ccc(-c4ccccc4F)s3)CC2)cc1,1.49 µM
2,Cn1nc(-c2ccc(NC(=O)Nc3ccc4ccccc4c3)c(F)c2)c2cnc(NCCN3CCOCC3)nc21,1.02 µM
3,CN(C)CCOc1cc(NC(=O)Nc2ccc(Oc3ccccc3)cc2)ccc1I,0.89 µM
4,COc1ccc(C(=O)Nc2nonc2-c2ccc(OC)c(OC)c2)cc1Cl,0.67 µM
5,FC(F)(F)c1ccccc1OCc1cc(-c2ccncc2)c(COc2ccccc2C(F)(F)F)cc1C1=CCNCC1,0.89 µM
6,Cc1ccc(Cl)cc1N1CCN(CCCNC(=O)C2CCN(c3nc4ccccc4[nH]3)CC2)CC1,0.9 µM
7,CN1Cc2ccc(NS(=O)(=O)c3ccc(-c4ccoc4)cc3)cc2C1,0.16 µM
8,CC(=O)N(C)c1cccc(CNc2cc(C)nc(Nc3ccc(C)cc3)n2)c1,1 µM
9,c1ccc(CCNCc2cccc(-c3ccc(CNc4ccc5ncccc5c4)cc3)c2)cc1,0.81 µM
10,O=C(Nc1cc(C(F)(F)F)cc(C(F)(F)F)c1)NC1CCC(CN2CCC(c3c[nH]c4ccccc34)CC2)CC1 (stereo not drawn),0.81 µM and 0.46 µM
11,CC(C)(C)c1ccc(CN2CCC(CNC(=O)c3cc(-c4ccccc4F)cs3)C2)cc1 (stereo not drawn),0.56 µM
12,COc1c(C2CCN(CCCCNC(=O)c3noc(-c4ccc(C#N)cc4)n3)CC2)ccc2c1CCCC2,0.78 µM
13,Cc1cccc2[nH]c(-c3ccc(-c4ccc(CNCCCNS(C)(=O)=O)cc4)s3)nc12,1 µM
14,CC1(C)N=C(NC(=O)c2ccc([N+](=O)[O-])cc2)N=C(N)N1OCc1ccc2ccccc2c1,0.01 µM
15,c1ccc(-c2nc(Nc3ccncc3)sc2-c2ccccc2)cc1,0.81 µM
16,CCCCOC(=O)C1=C(C)NC2=C(C(=O)CCC2)C1c1ccc(OC)c(Br)c1 (stereo not drawn),0.6 µM
17,CC(C)(C)c1ccc(CN2CCC(CNC(=O)c3cc(-c4ccccc4C(F)(F)F)cs3)C2)cc1 (stereo not drawn),1.24 µM
18,NC(=O)c1cccc(C(=O)Nc2cccc(-c3cccc(-c4nc5ccc(C(F)(F)F)cc5[nH]4)c3)c2)c1,0.13 µM
19,CS(=O)(=O)c1cccc2sc(N3CCN(C(=O)c4ccc([N+](=O)[O-])o4)CC3)nc12,1.24 µM
20,O=C(CCc1cnc[nH]1)Nc1cccc(-c2cccc(-c3nc4ccc(C(F)(F)F)cc4[nH]3)c2)c1,0.13 µM
21,O=c1cc(NCCCNCc2cc3ccc(Br)cc3s2)[nH]c2ccccc12,0.99 µM
22,c1cc(CN2CCN(c3ccncc3)CC2)cc(-c2cccc(-c3nc4ccccc4[nH]3)c2)c1,0.13 µM
23,O=S(=O)(c1ccc(OCc2ccc(Cl)cc2)cc1)c1cc2c(cc1OCc1ccccc1)CCN(C1CCC1)CC2,1.02 µM
24,OC(CNCCCCCCNCC(O)c1ccc(Cl)c(Cl)c1)c1ccc(Cl)c(Cl)c1 (stereo not drawn),0.91 µM
25,CC(=O)N(Cc1nc(-c2cc(C(F)(F)F)cc(C(F)(F)F)c2)cs1)c1c(C)cccc1C,0.11 µM

row,Compound,IC50
1,COc1cc(C=NNc2cc(C)nc3c(OC)cccc23)cc(OC)c1OC,0.89 µM
2,CCN(CC)CCN(Cc1ccc(-c2ccc(C(F)(F)F)cc2)cc1)C(=O)CN1C(CCc2cccc(F)c2F)=NS(=O)(=O)c2ccccc21,0.24 µM
3,COc1cc2c(c(Cl)c1OC)CCN(Cc1ccccc1)CC2c1ccc(NC(=O)C(F)(F)F)cc1 (stereo not drawn),0.92 µM
4,Cc1nnc(N2C(=N)SC(=Cc3ccc(-c4ccc(OC(F)(F)F)cc4)o3)C2=O)s1,0.53 µM
5,Cc1ccc(NC(=O)c2ccc(CN3CCCN(Cc4cccc(C#N)c4)CC3)cc2)cc1F,0.59 µM
6,NC(N)=NN=C1C=Cc2cccc3cccc1c23,0.61 µM
7,CNc1ccc(CNCc2cccc(-c3ccc(-c4nc5ccccc5[nH]4)s3)c2)cc1,0.73 µM
8,CN(Cc1cccc(F)c1)C1CCN(c2cc(NC(=O)c3ccc(F)cc3)ccn2)C1 (stereo not drawn),1.23 µM
9,Cc1cccc2[nH]c(-c3cccc(-c4cccc(NC(=O)CCc5cnc[nH]5)c4)c3)nc12,0.55 µM
10,NCc1ccc(CNCc2cccc(-c3ccc(-c4nc5ccccc5[nH]4)cc3)c2)cc1,0.72 µM
11,COc1ccc2nccc([C@@H](O)CN3CCC(NC(=O)C(=Cc4ccc(Cl)cc4Cl)c4ccc(-c5ccccc5)cc4)CC3)c2c1,0.99 µM
12,O=C(/C=C/c1ccc(Cl)c(Cl)c1)NCCCCCN1CCC(NC(=O)Nc2ccccc2Cl)CC1,0.71 µM
13,Cc1[nH]c2ccc(NS(C)(=O)=O)cc2c1C1CCN(CCC2CCN(C(=O)/C=C/c3ccc(Cl)c(Cl)c3)CC2)CC1,0.84 µM
14,O=C(NCCc1cccc(Cl)c1Cl)c1ccc(N2CCN(c3ccncc3)CC2)nc1,1.06 µM
15,C=C[C@H]1CN(CCCCCCC)CC[C@H]1CC(O)Cc1ccnc2cc(O)c(OC)cc12 (stereo partly drawn),0.82 µM
16,CCOc1cc2ncnc(Nc3ccc(OCc4c(Cl)cccc4Cl)c(OC)c3)c2cc1OCC,1.05 µM
17,Cc1ccc(NC(=O)c2ccc(CN3CCCN(CCC(C)C)CC3)cc2)cc1C,0.91 µM
18,CC(C)(C)c1ccc(NC(=O)c2cccc(CN3CCCN(Cc4cccc(Cl)c4)CC3)c2)cc1,1 µM
19,Cc1nc(-c2nc(NCCc3cnccn3)ncc2-c2ccsc2)sc1C,0.88 µM
20,CCCCCCCN1[C@@H]2CC[C@H]1CC(CCOc1ccnc3ccc(OC)cc13)C2 (stereo partly drawn),0.39 µM
21,O=C(CCc1ccco1)NC1CCN(CC2(c3ccc(Cl)cc3)CCC2)CC1,1.45 µM
22,CC(Cc1ccc(OCCN2CCN(c3ccc(Cl)cc3)CC2)cc1)NCC(O)c1cccc(C(F)(F)F)c1 (stereo not drawn),0.81 µM
23,CC(=O)c1cccc(NC(=O)C2c3ccccc3C(=O)N(CC(C)C)C2c2cccs2)c1 (stereo not drawn),0.59 µM
24,Nc1ncc(-c2ccc(F)c(Cl)c2)c(N)n1,1.23 µM
25,CN1CCC(NCc2cccc(-c3ccc(S(=O)(=O)NCc4ccccc4)c(F)c3)c2)CC1,0.33 µM

row,Compound,IC50
1,Cc1[nH]c(C)c(-c2ccc(C(=O)c3ccc(Cl)cc3)cc2)c(=O)c1Cl,0.53 µM
2,Cc1cc(C)cc(Oc2c(C(F)(F)F)oc3c(CN4CC(C)OC(C)C4)c(O)ccc3c2=O)c1 (stereo not drawn),0.94 µM
3,COc1ccc2[nH]cc(C3CCN(CCCCCNC(=O)c4ccc(-c5ccccc5)cc4)CC3)c2c1,0.8 µM
4,Fc1ccc2nc(-c3cccc(-c4cccc(CNCC5CCCO5)c4)c3)[nH]c2c1 (stereo not drawn),0.51 µM
5,Cc1[nH]c(C)c(-c2cccc(-c3ccc(OC(F)(F)F)cc3)c2)c(=O)c1Br,0.41 µM
6,CC(Cc1ccc(COc2ccc(CC(CO)NCCc3cccc(Cl)c3)cc2)cc1)NCCc1cccc(Cl)c1 (stereo not drawn),0.82 µM
7,O=C(Nc1ccc(Cl)cc1)Nc1ccc(-c2ccc(-c3nc4ccccc4[nH]3)cc2)cc1,0.05 µM
8,COc1cc2nc(N3CCC(CNC(=O)c4cccc5cccnc45)CC3)nc(N)c2cc1OC,1.7 µM
9,O=C(NCc1cccc(F)c1)Nc1ccc(-c2ccc(-c3nc4ccc(C(F)(F)F)cc4[nH]3)cc2)cc1,0.77 µM
10,Nc1cc(-c2ccc(-c3cccs3)s2)nc2ccccc12,0.6 µM
11,Cc1cc(NN=Cc2cccc(Cl)c2)c2ccccc2n1,0.26 µM
12,CCNc1cc(C(=O)N[C@@H](Cc2ccccc2)[C@H](O)CNCCc2ccccc2)cc(N2CCCC2=O)c1,0.84 µM
13,Cc1ccccc1C1CCN(C2CCC(NC(=O)/C=C/c3ccc(OC(F)(F)F)cc3)CC2)CC1 (stereo not drawn),0.86 µM
14,CNCCNCc1cccc(-c2ccc(-c3nc4c(C)cccc4[nH]3)s2)c1,0.95 µM
15,COc1ccc2nccc(NC(=O)OC3CCC(NCc4ccc5c(n4)NC(=O)CS5)CC3)c2c1 (stereo not drawn),0.92 µM
16,O=C(NC1CCN(Cc2ccc(O)cc2)CC1)c1ccc(Cl)c(Cl)c1,1.18 µM
17,CCCNc1nc(Nc2ccccc2C)nc2ccccc12,0.89 µM
18,COc1nc2c(CCN3CCC(NCc4ccc5c(c4)NC(=O)CO5)CC3)c(Cl)cnc2cc1F,0.77 µM
19,FC(F)(F)c1ccc(-c2ccc(CNC3CCN(CCN4CCOCC4)CC3)cc2)cc1,0.76 µM
20,Cc1nc(N)nc(N)c1Oc1cccc(Cl)c1,0.87 µM
21,COc1ccc(Nc2nccc(N3CCC(NC(=O)c4cccc(C#N)c4)C3)n2)cc1 (stereo not drawn),0.82 µM
22,Cc1cc(N[C@@H](Cc2ccccc2)C(=O)NCCc2ccccc2)nc(NCCc2ccccc2)n1,0.85 µM
23,CCOc1cc(C(=O)NC2CCN(Cc3ccccc3)C2)ccc1-c1nc2ccc(Cl)cc2[nH]1 (stereo not drawn),1.01 µM
